The values that follow come from paper PMC4729767 (Theranostics, 2016).

The test system of series [1] is C6 cells. The series can be described thus: Annexin V-FITC/PI apoptosis study. The class given is cell-based, murine. The settings on record: PTX 1 μg/mL, 24 h, flow cytometer, n = 3, mean ± SD. Background: A flow cytometer gives signals particle by particle.
The subject of series [2] is intracranial C6 glioma bearing mice. Briefly: Anti-glioma efficacy. The class given is in vivo, Balb/c mice. The note with it: versus Saline; PTX 3 mg/kg i.v. x 6; n = 9.
The nature of series [3]: In vitro drug release by dialysis. The series is classed as physicochemical. The settings on record: dialysis (MWCO 8-14 kDa), PBS pH 7.4 with 0.1% Tween 80, 37 °C, 48 h, HPLC, n = 3.

SMILES strings stand for the structures.

As for `CC(=O)O[C@H]1C(=O)[C@@]2(C)[C@H]([C@H](OC(=O)c3ccccc3)[C@]3(O)C[C@H](OC(=O)[C@H](O)[C@@H](NC(=O)c4ccccc4)c4ccccc4)C(C)=C1C3(C)C)[C@]1(OC(C)=O)CO[C@@H]1C[C@@H]2O` [free PTX, Paclitaxel], in series [1], the “apoptosis and necrosis rates of C6 cells” value is 75.65 ± 1.77%. The same molecule showed an Increased survival time in series [2] of 53%. For the same molecule, in series [3], the PTX release behavior is given as at most 8 h.
